# Measurements: patent US20220175693A1, “DIETARY SUPPLEMENT COMPRISING LUTEIN FOR TELOMERE PROTECTION, AND METHOD FOR PRODUCTION THEREOF” (BIOGEN EXTRACTS PRIVATE LIMITED, priority 2019, published 2022)
# System: human adult primary fibroblast cells
# Assay: Proliferative analysis (population doubling, cell counts per passage) under standard and oxidative stress conditions
# Assay type: cell-based
# Protocol: Analysis of cellular proliferation rate and telomere length in cultures of human adult primary fibroblast cells treated with lutein under standard and oxidative stress conditions. Primary cultures of adult human fibroblast were established. Cells are seeded at 2×10^3 cells/cm2 in GlutaMax™ high glucose Dulbecco's modified Eagle's medium (DMEM, Gibco®), and supplemented with 10% fetal bovine serum (FBS, HyClone, Thermo Scientific), penicillin (100 U/ml) and reptomycin (1000 U/ml). Media is renewed every 2-3 days and cells passaged at sub-confluence (70-80%) every 4-5 days. Compounds or vehicle control are added to the cells in culture. Cell growth is monitored for each condition by counting cell numbers at each passage using a Countess™ cell counter (Invitrogen). Population doubling (PD) was calculated with the formula PD=(log (Nn/Nn-1))/log 2 where n is the passage; and N the number of cells. One PD is equivalent to one round of cell replication. Eight independent condition were evaluated by proliferative Analysis: Standard cell culture condition+Lutein−10 μg/ml (LUT10) Standard cell culture condition+Lutein−5 μg/ml (LUT5) Standard cell culture condition+Lutein−1 μg/ml (LUT1) Standard cell culture condition+Lutein−10 μg/ml+10 μM H2O2 (LUT10+H2O2) Standard cell culture condition+Lutein−5 μg/ml+10 μM H2O2(LUT5+H2O2) Standard cell culture condition+Lutein−1 μg/ml+10 μM H2O2 (LUT1+H2O2) Cells were expanded during eight weeks under standard and oxidative (10 μM H2O2) cell culture condition as described previously. Fresh treatments were prepared and added to the cells at every passage and also when media was renewed. Stock solution of 10 mg/ml of the compound was prepared in DMSO and the different treatments were prepared from that stock.
# [1] = Lutein 1 μg/ml + 10 μM H2O2, week 1 (P1)
# [2] = Lutein 1 μg/ml + 10 μM H2O2, week 2 (P2)
# [3] = Lutein 1 μg/ml + 10 μM H2O2, week 3 (P3)
# [4] = Lutein 1 μg/ml + 10 μM H2O2, week 4 (P4)
# [5] = Lutein 1 μg/ml + 10 μM H2O2, week 5 (P5)
# [6] = Lutein 1 μg/ml + 10 μM H2O2, week 6 (P6)
# [7] = Lutein 1 μg/ml + 10 μM H2O2, week 7 (P7)
# [8] = Lutein 1 μg/ml + 10 μM H2O2, week 8 (P8)
# [9] = Lutein 1 μg/ml, standard culture, week 1 (P1)
# [10] = Lutein 1 μg/ml, standard culture, week 2 (P2)
# [11] = Lutein 1 μg/ml, standard culture, week 3 (P3)
# [12] = Lutein 1 μg/ml, standard culture, week 4 (P4)
# [13] = Lutein 1 μg/ml, standard culture, week 5 (P5)
# [14] = Lutein 1 μg/ml, standard culture, week 6 (P6)
# [15] = Lutein 1 μg/ml, standard culture, week 7 (P7)
# [16] = Lutein 1 μg/ml, standard culture, week 8 (P8)
# [17] = Lutein 5 μg/ml + 10 μM H2O2, week 1 (P1)
# [18] = Lutein 5 μg/ml + 10 μM H2O2, week 2 (P2)
# [19] = Lutein 5 μg/ml + 10 μM H2O2, week 3 (P3)
# [20] = Lutein 5 μg/ml + 10 μM H2O2, week 4 (P4)
# [21] = Lutein 5 μg/ml + 10 μM H2O2, week 5 (P5)
# [22] = Lutein 5 μg/ml + 10 μM H2O2, week 6 (P6)
# [23] = Lutein 5 μg/ml + 10 μM H2O2, week 7 (P7)
# [24] = Lutein 5 μg/ml + 10 μM H2O2, week 8 (P8)
smiles,measurement,setting,value
CC1=C[C@H](O)CC(C)(C)[C@H]1/C=C/C(C)=C/C=C/C(C)=C/C=C/C=C(C)/C=C/C=C(C)/C=C/C1=C(C)C[C@@H](O)CC1(C)C [Lutein],Cumulative Population Doubling per passage,[1],3.42
same,Population Doubling per passage,[1],3.42
same,Total number of cells per passage,[1],1.60E+06
same,Cumulative Population Doubling per passage,[2],6.29
same,Population Doubling per passage,[2],2.87
same,Total number of cells per passage,[2],1.17E+07
same,Cumulative Population Doubling per passage,[3],9.16
same,Population Doubling per passage,[3],2.37
same,Total number of cells per passage,[3],8.60E+07
same,Cumulative Population Doubling (Table 7A),"Lutein 1 μg/ml + 10 μM H2O2, week 4",12.3
same,Cumulative Population Doubling per passage,[4],12.28
same,Population Doubling per passage,[4],3.12
same,Total number of cells per passage,[4],7.46E+08
same,Cumulative Population Doubling per passage,[5],14.76
same,Population Doubling per passage,[5],2.49
same,Total number of cells per passage,[5],4.18E+09
same,Cumulative Population Doubling per passage,[6],17.41
same,Population Doubling per passage,[6],2.65
same,Total number of cells per passage,[6],2.62E+10
same,Cumulative Population Doubling per passage,[7],18.41
same,Population Doubling per passage,[7],1.00
same,Total number of cells per passage,[7],5.23E+10
same,Cumulative Population Doubling (Table 7A),"Lutein 1 μg/ml + 10 μM H2O2, week 8",20.7
same,Cumulative Population Doubling per passage,[8],20.72
same,Population Doubling per passage,[8],2.30
same,Total number of cells per passage,[8],2.58E+11
same,Cumulative Population Doubling per passage,[9],3.81
same,Population Doubling per passage,[9],3.81
same,Total number of cells per passage,[9],2.10E+06
same,Cumulative Population Doubling per passage,[10],7.31
same,Population Doubling per passage,[10],3.50
same,Total number of cells per passage,[10],2.38E+07
same,Cumulative Population Doubling per passage,[11],10.18
same,Population Doubling per passage,[11],3.57
same,Total number of cells per passage,[11],1.75E+08
same,Cumulative Population Doubling (Table 7A),"Lutein 1 μg/ml, standard culture, week 4",13.7
same,Cumulative Population Doubling per passage,[12],13.69
same,Population Doubling per passage,[12],3.50
same,Total number of cells per passage,[12],1.98E+09
same,Cumulative Population Doubling per passage,[13],15.71
same,Population Doubling per passage,[13],2.02
same,Total number of cells per passage,[13],8.04E+09
same,Cumulative Population Doubling per passage,[14],18.71
same,Population Doubling per passage,[14],3.00
same,Total number of cells per passage,[14],6.44E+10
same,Cumulative Population Doubling per passage,[15],21.39
same,Population Doubling per passage,[15],2.68
same,Total number of cells per passage,[15],4.12E+11
same,Cumulative Population Doubling (Table 7A),"Lutein 1 μg/ml, standard culture, week 8",24.1
same,Cumulative Population Doubling per passage,[16],24.13
same,Population Doubling per passage,[16],2.74
same,Total number of cells per passage,[16],2.75E+12
same,Cumulative Population Doubling per passage,[17],3.58
same,Population Doubling per passage,[17],3.58
same,Total number of cells per passage,[17],1.80E+06
same,Cumulative Population Doubling per passage,[18],6.91
same,Population Doubling per passage,[18],3.32
same,Total number of cells per passage,[18],1.80E+07
same,Cumulative Population Doubling per passage,[19],10.13
same,Population Doubling per passage,[19],3.22
same,Total number of cells per passage,[19],1.68E+08
same,Cumulative Population Doubling (Table 7A),"Lutein 5 μg/ml + 10 μM H2O2, week 4",13.5
same,Cumulative Population Doubling per passage,[20],13.54
same,Population Doubling per passage,[20],3.42
same,Total number of cells per passage,[20],1.79E+09
same,Cumulative Population Doubling per passage,[21],15.70
same,Population Doubling per passage,[21],2.16
same,Total number of cells per passage,[21],8.00E+09
same,Cumulative Population Doubling per passage,[22],17.84
same,Population Doubling per passage,[22],2.14
same,Total number of cells per passage,[22],3.52E+10
same,Cumulative Population Doubling per passage,[23],20.71
same,Population Doubling per passage,[23],2.87
same,Total number of cells per passage,[23],2.58E+11
same,Cumulative Population Doubling (Table 7A),"Lutein 5 μg/ml + 10 μM H2O2, week 8",23.1
same,Cumulative Population Doubling per passage,[24],23.06
same,Population Doubling per passage,[24],2.34
same,Total number of cells per passage,[24],1.31E+12
same,Cumulative Population Doubling per passage,"Lutein 5 μg/ml, standard culture, week 1 (P1)",3.81
